21 compounds from patent US20250129073A1, “INHIBITOR OF RECEPTOR-INTERACTING PROTEIN KINASE 1, AND PREPARATION METHOD AND USE THEREFOR” (CHINA PHARMACEUTICAL UNIVERSITY, priority 2021, published 2025) can be followed below.

Experiment [1] deals with rat model of ischemic stroke (MCAO). In words: Rat MCAO cerebral ischemia/reperfusion model of ischemic stroke. Format: in vivo. The note with it: tMCAO rats. On the procedure: Animals: SPF-grade male Sprague Dawley (SD) rats (purchased from Beijing Weitonglihua Experimental Animal Technology Co., Ltd.). Rats were fed with a free diet, 12 h: 12 h circadian rhythm.
Material: 2,3,5-Triphenyltetrazolium chloride (purchased from Beijing Solebo Technology Co., Ltd.), N,N-Dimethylacetamide (purchased from Shanghai Aladdin Biochemical Technology Co., Ltd.), castor oil polyoxyethylene ether (purchased from Shanghai McLean Biochemical Technology Co., Ltd.), sodium chloride (purchased from Bioengineering (Shanghai) Co., Ltd.), isoflurane (purchased from Shenzhen ruiwode Life Technology Co., Ltd.), and Sodium dihydrogen phosphate (purchased from Sinopharm group), disodium hydrogen phosphate (purchased from Sinopharm group), paraformaldehyde (purchased from biotechnology (Shanghai) Co., Ltd.) and thread bolt (purchased from Beijing Xinong Technology Co., Ltd.).
Methods: A rat model of ischemic stroke was established by middle cerebral artery occlusion (MCAO) of cerebral ischemia/reperfusion: Healthy male SD rats (weighing 260±40 g) were anesthetized with 5% isoflurane and maintained with 1.5%-2% isoflurane. The rats were fixed in the supine position, and the right common carotid artery, internal carotid artery and external carotid artery were separated through the median neck incision and threaded for standby. The proximal end of the common carotid artery and the external carotid artery were ligated, and the internal carotid artery was clamped with an artery clamp. The suture plug was cut and inserted at about 0.5 cm from the bifurcation of the common carotid artery. The artery clamp was released, and the suture plug was delivered until the blood flow of the middle cerebral artery was blocked. After 60 minutes of ischemia, the suture plug was removed to restore blood flow. The rectal temperature was maintained at 37±0.5° C. during the operation. After 48 hours of ischemia/reperfusion, the neurological function was evaluated by modified neurological severity score (MNSs). The cerebral infarction volume was detected by TTC staining, and the brain water content was detected to evaluate the cerebral edema.

Another experiment has as its system U937 cells. In words: Cell anti-necroptosis activity assay (LPS + Z-VAD-FMK, CCK8). The experiment is classed as cell-based. The conditions noted are these: Homo sapiens, U-937; PMA-differentiated U937, LPS 100 ng/ml + Z-VAD-FMK 20 μM, 24 h; read-out: EC50 of inhibition of necroptosis. On the procedure:
Materials: U937 cell line (human myeloid leukemia cells), RPMI 1640 medium (purchased from Gibco, USA), penicillin-streptomycin double antibody (purchased from Gibco, USA), fetal bovine serum (purchased from genetic, USA), tetradecanoylphorbol acetate (purchased from biyuntian Biotechnology Co., Ltd.), CCK8 cell proliferation detection kit (purchased from biyuntian Biotechnology Co., Ltd), Z-VAD-FMK (from APExBIO, USA) and LPS (from Sigma, USA).
U937 cells were cultured in RPMI 1640 containing 10% heat inactivated fetal bovine serum and 1% penicillin-streptomycin in a constant temperature cell incubator at 37° C. and 5% CO2, and subcultured every 1-2 days. Human monocytic cell line U937 cells could be induced to differentiate into mature monocytes/macrophages after stimulation with tetradecanoylphorbol acetate (PMA). The cells in the logarithmic growth phase were seeded in 96 well plates at a density of 4×10^4 cells/well and cultured. PMA 100 ng/ml was added for 24 h, and then the fresh medium was changed. The necroptosis model was constructed by stimulation of LPS and caspase inhibitor Z-VAD-FMK. In the experimental groups, LPS (100 ng/ml) was added for 1 hour, and then the solvent control (DMSO) or different concentrations of compounds to be tested (30 μM, 10 μM, 3 μM, 1 μM, 300 nM, 100 nM, 30 nM 7 concentrations in total) for 1 h, and then the experimental groups were treated with caspase inhibitor Z-VAD-FMK (20 μM). The cell viability was detected after 24 h of culture. The control groups were not treated with LPS, drugs and Z-VAD-FMK. No cells were added to the blank hole, only the culture medium. Each group is set with 4 parallel. CCK8 cell proliferation assay kit was used to detect the cell viability and survival rate, and the operation was carried out according to the kit instructions. The cell supernatant was added with 10 μL CCK8 detection reagent, and the cell absorbance (450 nm) was detected by a microplate reader after 0.5 h. Calculate the cell death rate (%)=(average absorbance of control well−average absorbance of experimental group)/(average absorbance of control well−average absorbance of the blank well)×100. Finally, the half effective concentration (EC50) of the drug was calculated by GraphPad Prism 7.0® software.

A further experiment has as its target RIPK1 kinase (Homo sapiens (Human), UniProt Q13546). In words: RIPK1 kinase inhibitory assay (ADP-Glo). The experiment is classed as biochemical. The conditions noted are these: for inhibition at 10 µM: 10 μM compound, read-out: Inhibition rate of RIPK1 at 10 μM (%). On the procedure:
Materials and Instruments: ADP-Glo kinase kit (purchased from Promega), RIPK1 GST-Th-Tag (purchased from Bps Bioscience), MBP substrate (purchased from Millipore), nunc 384-well plate, ATP fluorescence analyzer Paradigm detection platform (purchased from Beckman coulter)
The compounds were diluted in DMSO and configured into a solution with a final concentration of 10 mM; Dilute RIP1 kinase from 140 ng/μL to 20 ng/μL for use. Dilute 10 mM of ATP to 100 μM for later use; Dilute 5 mg/mL of MBP to 1 mg/mL for later use. Appropriate embodiments were added into the well of the 384-well plate, 10 μl […] ATP was evenly mixed with 1 μl 1 mg/mL MB P, the mixed solution was added to the well, and 2 μL […] RIP1 kinase was added to the hole, and then incubated at room temperature for 1 h. Subsequently, 5 μL ADP-Glo reagent was added to each well and incubated at room temperature for 40 min. Then, 10 μL ADP-Glo detection reagent was added to each well and incubated at room temperature for 30 min. Finally, the RLU value (relative light unit) of each well was measured by ATP fluorometer, and each sample was repeated twice. Inhibition rate=(RLU value of blank group−RLU value of drug administration group)/RLU value of blank group×100%.
(In general: In ADP-Glo the light output rises with the ADP produced.)

Where [2] appears, read: 2.5 mg/kg and 5 mg/kg bid, 48 h after ischemia/reperfusion.

Sequence of RIPK1 kinase (Q13546 whole entry): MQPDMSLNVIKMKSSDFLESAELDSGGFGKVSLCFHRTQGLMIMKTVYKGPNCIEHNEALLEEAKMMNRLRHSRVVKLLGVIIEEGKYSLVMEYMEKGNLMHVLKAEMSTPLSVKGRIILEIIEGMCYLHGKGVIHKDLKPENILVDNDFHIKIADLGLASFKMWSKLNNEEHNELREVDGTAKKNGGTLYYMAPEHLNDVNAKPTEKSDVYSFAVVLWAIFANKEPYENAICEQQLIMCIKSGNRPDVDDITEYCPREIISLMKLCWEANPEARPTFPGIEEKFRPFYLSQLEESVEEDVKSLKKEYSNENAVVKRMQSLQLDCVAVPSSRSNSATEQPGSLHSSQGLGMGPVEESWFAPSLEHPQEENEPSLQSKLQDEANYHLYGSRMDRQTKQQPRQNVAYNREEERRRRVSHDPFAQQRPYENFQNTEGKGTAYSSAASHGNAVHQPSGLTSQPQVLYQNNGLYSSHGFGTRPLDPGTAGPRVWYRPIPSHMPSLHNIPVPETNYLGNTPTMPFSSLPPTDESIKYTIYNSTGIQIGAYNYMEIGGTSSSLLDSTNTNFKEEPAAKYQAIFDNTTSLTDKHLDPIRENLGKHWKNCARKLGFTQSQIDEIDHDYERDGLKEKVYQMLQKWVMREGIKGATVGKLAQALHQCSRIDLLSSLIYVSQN

The term EC50 denotes the concentration that produces a half-maximal response. What is called IC50 is the point on the concentration scale where inhibition reaches its midpoint. A lower IC50 goes with greater potency in that assay. By inhibition is commonly meant the relative decrease from the control value, in per cent. On to `O=C(c1ccccc1)N1CCC2(CC1)CCN(Cc1ccccc1F)C2=O` [Compound 31, 8-benzoyl-2-(2-fluorobenzyl)-2,8-diazaspiro[4.5]decan-1-one], for which, in experiment [1] (setting [2]), the nerve injury score entry is “significantly reduce” and the “water content in the ischemic side” value is on record as “significantly reduce”. Besides, the infarct volume entry in experiment [1] (2.5 mg/kg and 5 mg/kg bid, 48 h after ischemia/reperfusion, TTC staining) is given as “significantly reduce”. In addition, the “protective effect on cerebral ischemia injury compared with edaravone” value in experiment [1] (5 mg/kg bid vs positive control edaravone 5 mg/kg QD) is “stronger protective effect”. Besides, in the experiment on U937 cells, the EC50 came to 1.05 µM. At RIPK1 kinase, half-maximal inhibition (IC50) was put at 0.186 µM and the inhibition at 10 µM is more than 50%. Consider `Cn1ccc2ccc(C(=O)N3CCC4(CC3)CCN(Cc3cc(F)ccc3F)C4=O)cc21` [Compound 49, 2-(2,5-difluorobenzyl)-8-(1-methyl-1H-indole-6-carbonyl)-2,8-diazaspiro[4.5]decan-1-one], for which, in the experiment with U937 cells, the EC50 is 1.11 µM. On RIPK1 kinase, the IC50 turned out to be 0.092 µM and the inhibition at 10 µM was more than 50%. The matching figures for `O=C(c1ccc2cc[nH]c2c1)N1CCC2(CC1)CCN(Cc1cc(F)ccc1F)C2=O` [Compound 46, 2-(2,5-difluorobenzyl)-8-(1H-indole-6-carbonyl)-2,8-diazaspiro[4.5]decan-1-one]: 1.2 µM, 0.624 µM and more than 50%. The matching figures for `O=C(c1cnco1)N1CCC2(CC1)CCN(Cc1cc(F)ccc1F)C2=O` [Compound 42, 2-(2,5-difluorobenzyl)-8-(oxazole-5-carbonyl)-2,8-diazaspiro[4.5]decan-1-one]: 1.65 µM, 1.04 µM and more than 50%.

Consider `O=C(c1ccc2cc[nH]c2c1)N1CCC2(CC1)CCN(Cc1ccccc1F)C2=O` [Compound 44, 2-(2-fluorobenzyl)-8-(1H-indole-6-carbonyl)-2,8-diazaspiro[4.5]decan-1-one], for which, in the experiment on U937 cells, the EC50 was determined as 0.161 µM. At RIPK1 kinase, the IC50 stood at 0.186 µM and the inhibition at 10 µM was more than 50%. For the compound `CC(C)N1CCC2(CCN(Cc3ccccc3)C2=O)CC1` [Compound 22, 2-benzyl-8-isopropyl-2,8-diazaspiro[4.5]decan-1-one], the inhibition at 10 µM at RIPK1 kinase is 8%.

For `O=C(c1cccnc1)N1CCC2(CC1)CCN(Cc1ccccc1)C2=O` [Compound 17, 2-benzyl-8-nicotinoyl-2,8-diazaspiro[4.5]decan-1-one], the inhibition at 10 µM on RIPK1 kinase was determined as 45%. As for `CN1C(=O)N(CC2CCCC2)C(=O)C12CCN(C(=O)c1ccccc1)CC2` [Compound 8, 8-benzoyl-3-(cyclopentylmethyl)-1-methyl-1,3,8-triazaspiro [4.5]decane-2,4-dione], on RIPK1 kinase, the inhibition at 10 µM stood at 22%. Take `N#Cc1ccc(CN2N=CC3(CCN(C(=O)c4ccccc4)CC3)C2=O)cc1` [Compound 69, 4-((8-benzoyl-1-oxo-2,3,8-triazaspiro[4.5]dec-3-en-2-yl)methyl) benzonitrile]: the inhibition at 10 µM on RIPK1 kinase stood at 9%. Same read-out and setting: as for `O=C(c1cnco1)N1CCC2(CC1)CCN(Cc1ccccc1)C2=O` [Compound 18, 2-benzyl-8-(oxazole-5-carbonyl)-2,8-diazaspiro[4.5]decan-1-one], the figure is more than 50%. For the compound `Cn1ccc2ccc(C(=O)N3CCC4(CC3)CCN(Cc3ccccc3F)C4=O)cc21` [Compound 50, 2-(2-fluorobenzyl)-8-(1-methyl-1H-indole-6-carbonyl)-2,8-diazaspiro decan-1-one], in the experiment on U937 cells, the EC50 was 1.56 µM. Further, on RIPK1 kinase, the IC50 is 0.102 µM and the inhibition at 10 µM is more than 50%. Turning to `O=C(c1ccccc1)N1CCC2(CC1)N=CN(Cc1ccccc1)C2=O` [Compound 59, 8-benzoyl-3-benzyl-1,3,8-triazaspiro[4.5]dec-1-en-4-one], the inhibition at 10 µM at RIPK1 kinase came out at 38%. For `O=C(c1cnco1)N1CCC2(CC1)CCN(Cc1ccccc1F)C2=O` [Compound 30, 2-(2-fluorobenzyl)-8-(oxazole-5-carbonyl)-2,8-diazaspiro[4.5]decan-1-one], at RIPK1 kinase, the inhibition at 10 µM is more than 50%. Regarding `CN1C(=O)N(Cc2cccc(Cl)c2)C(=O)C12CCN(C(=O)c1ccccc1)CC2` [Compound 3, 8-benzoyl-3-(3-chlorobenzyl)-1-methyl-1,3,8-triazaspiro[4.5]decane-2,4-dione], at RIPK1 kinase, the inhibition at 10 µM came to 11%. Turning to `Cn1ccc2cc(C(=O)N3CCC4(CC3)CCN(Cc3ccccc3)C4=O)ccc21` [Compound 28, 2-benzyl-8-(1-methyl-1H-indole-5-carbonyl)-2,8-diazaspiro[4.5]decan-1-one], the inhibition at 10 µM on RIPK1 kinase worked out at 3%.

As for `O=C(c1ccccc1)N1CCC2(CC1)CCN(Cc1ccc(Cl)cc1F)C2=O` [Compound 39, 8-benzoyl-2-(4-chloro-2-fluorobenzyl)-2,8-diazaspiro[4.5]decan-1-one], the inhibition at 10 µM on RIPK1 kinase was more than 50%.

On to `O=C1N(Cc2cc(F)ccc2F)CCC12CCN(c1ncccn1)CC2` [Compound 51, 2-(2,5-difluorobenzyl)-8-(pyrimidin-2-yl)-2,8-diazaspiro[4.5]decan-1-one], for which, at RIPK1 kinase, the inhibition at 10 µM turned out to be 41%.

As for `O=C(c1ccccc1)N1CCC2(CC1)CCN(Cc1c(F)cccc1Cl)C2=O` [Compound 45, 8-benzoyl-2-(2-chloro-6-fluorobenzyl)-2,8-diazaspiro[4.5]decan-1-one], at RIPK1 kinase, the inhibition at 10 µM worked out at 43%. As to `CN1C(=O)N(CC2CCCCC2)C(=O)C12CCN(C(=O)c1ccccc1)CC2` [Compound 7, 8-benzoyl-3-(cyclohexylmethyl)-1-methyl-1,3,8-triazaspiro [4.5]decane-2,4-dione], at RIPK1 kinase, the inhibition at 10 µM was determined as 34%. On the same count and under the same terms, as for `N#Cc1ccc(F)cc1CN1CCC2(CCN(C(=O)c3ccccc3)CC2)C1=O` [Compound 57, 2-((8-benzoyl-1-oxo-2,8-diazaspiro[4.5]decan-2-yl)methyl)-4-fluorobenzonitrile], the figure is 25%. For the compound `O=C(c1ccccc1)N1CCC2(CC1)CCN(Cc1cc(F)ccc1F)C2=O` [Compound 34, 8-benzoyl-2-(2,5-difluorobenzyl)-2,8-diazaspiro[4.5]decan-1-one], the EC50 with U937 cells was found to be 1.34 µM. Besides, on RIPK1 kinase, the IC50 worked out at 0.693 µM and the inhibition at 10 µM was more than 50%.
